# Test results as given in US20230114674A1, “ISOINDOLINE DERIVATIVE, AND PHARMACEUTICAL COMPOSITION AND USE THEREOF” (KANGPU BIOPHARMACEUTICALS, LTD., priority 2020, published 2023).
# pIC50: −log10 of the molar value.
# Tested on: MM.1S myeloma cells
# Assay: Cell proliferation inhibition test by CTG (CellTiter-Glo) assay
# Type: cell-based
# Details: Homo sapiens, MM1.S, 120 hours drug treatment, 4,000 cells/well, 384-well plate, read-out: MM.2S IC50
# Experimental: Experimental Method for Cell Proliferation Inhibition Test by CTG Assay:
# The proliferation inhibitory activity of the compounds in the MM.1S myeloma cell model was determined by CellTiter-Glo (CTG) Luminescent Cell Viability Assay (Promega). MM.1S cells (ATCC, Cat #CRL-2974) at exponential phase were resuspended in RPMI-1640 (Gibco, Cat #11875-093)+10% FBS+1% penicillin/streptomycin+2 mM Glutamax medium and counted using an automated cell counter (ViCellXR). According to the optimized cell plating density in the pre-experiments, 40 μl of cell suspension at a density of 100,000 cells/ml was plated in the corresponding wells of a 384-well plate (4,000 cells/well) to ensure that cells in the control group were at linear growth phase within the five-day experimental period. The plated 384-well plate was cultured in a 37° C., 5% CO2 incubator for 24 hours. On the day of administration, each compound was formulated into 10 mM stock solution with DMSO (Sigma, Cat #276855-1L) and the stock solution was further diluted with DMSO to 20 μM and 20 nM working solutions. Drug treatment of MM.1S cells started at a concentration of up to 100 nM and the drug was serial diluted 4-fold with 10 points, with three replicate wells. Nanoliter volumes of compound solutions were added to the corresponding wells of the 384-well plate according to the needed concentration in a non-contact spraying manner by an HPD300 microscale automated dispenser (Tecan). The final concentration of DMSO was 0.5%. After drug addition, the 384-well plate was cultured in a 37° C., 5% CO2 incubator for 120 hours. After five days of drug treatment, 25 μl of CTG reagent (Promega, Cat #G7573) was added to each well, and the plate was shaken on a plate shaker for 10 minutes to ensure that the cells were fully lysed, and then left to stand at room temperature for 10 minutes to ensure a sufficient reaction of CTG with the substrate and the generation of a stable luminescent signal. The signal is proportional to the amount of ATP in the cell lysate, i.e., the number of metabolically active cells. Chemiluminescence of the cells in the plate was detected by an EnSpire instrument. The reading of the cells at Day 0 was used as a control for cells at growth starting point and the reading of cells with 0.5% DMSO at Day 5 was used as a control for cells under growth. Cell proliferation inhibition curve was plotted using XLFit software and the IC50 value was calculated. Experiment results can be seen in Table 2.
row,pIC50,Compound
1,6.92,"Nc1cccc2c1CN(C1CCC(=O)NC1=O)C2=O (centres unmarked) [Control 1, reference compound]"
2,10.16,CCOc1cc(N2CCN(Cc3ccc(COc4cccc5c4CN([C@H]4CCC(=O)NC4=O)C5=O)cc3F)CC2)ccc1C#N [CM-46]
3,10.03,CNC(=O)c1ccc(N2CCN(Cc3ccc(COc4cccc5c4CN([C@H]4CCC(=O)NC4=O)C5=O)cc3F)CC2)cc1F [CM-45]
4,10.22,COc1c(C#N)ccc(N2CCN(Cc3ccc(COc4cccc5c4CN([C@H]4CCC(=O)NC4=O)C5=O)c(F)c3)CC2)c1F [CM-49]

row,Compound,pIC50
1,N#Cc1ccc(N2CCN(Cc3ccc(COc4cccc5c4CN([C@H]4CCC(=O)NC4=O)C5=O)c(F)c3)CC2)c(F)c1Cl [CM-48],10.44
2,N#Cc1ccc(N2CCN(Cc3ccc(COc4cccc5c4CN([C@H]4CCC(=O)NC4=O)C5=O)c(F)c3)CC2)c(F)c1C(F)(F)F [CM-47],9.87

# Tested on: MM.1S myeloma cells
# Assay: Cell proliferation inhibition test by MTS assay
# Type: cell-based
# Details: Homo sapiens, MM1.S, 72 hours drug treatment, 15,000 cells/well, 96-well plate
# Experimental: Experimental Method for Cell Proliferation Inhibition Test by MTS Assay:
# Proliferating MM.1S myeloma cells (ATCC, Cat #CRL-2974) were resuspended in RPMI-640 medium (Gibco, Cat #A10491-01) and counted using an automated cell counter. The cell suspension was diluted to the needed density and 100 μl (15,000 cells) of the cell suspension was plated per well in a 96-well plate. The plate was cultured in a 37° C., 5% CO2 incubator for 24 hours. On the day of administration, each compound was formulated into 20 mM stock solution with DMSO (Sigma, Cat #D2650), diluted with a medium to the needed concentration, and then added to the corresponding wells for the cell proliferation inhibition test with a drug of 4-fold serial dilution with 10 points. The final concentration of DMSO was 0.5%. After drug addition, the 96-well plate was cultured in a 37° C., 5% CO2 incubator for 72 hours. Then, 20 μl of MTS (Promega, Cat #G3581) was added to each well and the plate was cultured for 2 hours in a 37° C., 5% CO2 incubator, and then the absorbance at 490 nm of each well was recorded using an Ensight instrument. The reading of the cells at Day 0 was used as a negative control and the reading of cells with 0.5% DMSO at Day-3 was used as a positive control. Cell proliferation inhibition curve was plotted using GraphPad Prism 5 software and the IC50 value was calculated. Experiment results can be seen in Table 1.
row,Compound,pIC50
1,"Nc1cccc2c1CN(C1CCC(=O)NC1=O)C2=O (centres unmarked) [Control 1, reference compound]",7.64
2,O=C1CC[C@H](N2Cc3c(OCc4ccc(CN5CCN(c6ccc(C(F)(F)F)c(F)c6)CC5)cc4F)cccc3C2=O)C(=O)N1 [CM-16],9.72
3,"NC(=O)c1ccc(N2CCN(Cc3ccc(COc4cccc5c4CN([C@H]4CCC(=O)NC4=O)C5=O)c(F)c3)CC2)cc1F [CM-18, (S)-4-(4-(4-(((2-(2,6-dioxopiperidin-3-yl)-1-oxoisoindolin-4-yl)oxy)methyl)-3-fluorobenzyl)piperazin-1-yl)-2-fluorobenzamide]",10.73
4,N#Cc1ccc(N2CCN(Cc3ccc(COc4cccc5c4CN([C@H]4CCC(=O)NC4=O)C5=O)c(F)c3)CC2)cc1OCC1CC1 [CM-13],10.57
5,N#Cc1ccc(N2CCN(Cc3ccc(COc4cccc5c4CN([C@H]4CCC(=O)NC4=O)C5=O)c(F)c3)CC2)c(C#N)c1 [CM-30],9.96
6,Cc1cc(N2CCN(Cc3ccc(COc4cccc5c4CN([C@H]4CCC(=O)NC4=O)C5=O)c(F)c3)CC2)ccc1C#N [CM-11],11.04
7,"N#Cc1ccc(N2CCN(Cc3ccc(COc4cccc5c4CN([C@H]4CCC(=O)NC4=O)C5=O)c(F)c3)CC2)c(F)c1 [CM-3, (S)-4-(4-(4-(((2-(2,6-dioxopiperidin-3-yl)-1-oxoisoindolin-4-yl)oxy)methyl)-3-fluorobenzyl)piperazin-1-yl)-3-fluorobenzonitrile]",11.19
8,NC(=O)c1ccc(N2CCN(Cc3ccc(COc4cccc5c4CN([C@H]4CCC(=O)NC4=O)C5=O)c(F)c3)CC2)c(F)c1 [CM-24],10.41
9,N#Cc1ccc(N2CCN(Cc3ccc(COc4cccc5c4CN([C@H]4CCC(=O)NC4=O)C5=O)c(F)c3)CC2)cc1Cl [CM-39],10.20
10,C=Cc1ccc(N2CCN(Cc3ccc(COc4cccc5c4CN([C@H]4CCC(=O)NC4=O)C5=O)c(F)c3)CC2)c(F)c1 [CM-38],8.92

# The next lines start with the values.
row,pIC50,Compound
1,9.42,N#Cc1ccc(N2CCN(Cc3ccc(COc4cccc5c4CN([C@H]4CCC(=O)NC4=O)C5=O)c(F)c3)CC2)c(O)c1 [CM-40]
2,11.17,CCOc1cc(N2CCN(Cc3ccc(COc4cccc5c4CN([C@H]4CCC(=O)NC4=O)C5=O)c(F)c3)CC2)ccc1C#N [CM-12]
3,10.24,NC(=O)c1ccc(N2CCN(Cc3ccc(COc4cccc5c4CN([C@H]4CCC(=O)NC4=O)C5=O)cc3F)CC2)c(F)c1 [CM-23]
4,10.68,N#Cc1ccc(N2CCN(Cc3ccc(COc4cccc5c4CN([C@H]4CCC(=O)NC4=O)C5=O)c(F)c3)CC2)c(C(F)(F)F)c1 [CM-8]
5,10.98,N#Cc1ccc(N2CCN(Cc3ccc(COc4cccc5c4CN([C@H]4CCC(=O)NC4=O)C5=O)c(F)c3)CC2)cc1 [CM-10]
6,9.87,COc1cc(C#N)ccc1N1CCN(Cc2ccc(COc3cccc4c3CN([C@H]3CCC(=O)NC3=O)C4=O)c(F)c2)CC1 [CM-27]
7,10.12,CNC(=O)c1cc(C#N)ccc1N1CCN(Cc2ccc(COc3cccc4c3CN([C@H]3CCC(=O)NC3=O)C4=O)c(F)c2)CC1 [CM-34]
